Several values for one entry are separate records, joined by “and”; a condition that tells them apart may be missing. Equal values may be shown once.
How the values were obtained:
[1] = target: T1, Corticotropin-releasing factor receptor 1 (Homo sapiens, UniProt P34998); assay: Binding affinity for human recombinant corticotropin releasing factor receptor 1
T1 sequence (P34998 whole entry): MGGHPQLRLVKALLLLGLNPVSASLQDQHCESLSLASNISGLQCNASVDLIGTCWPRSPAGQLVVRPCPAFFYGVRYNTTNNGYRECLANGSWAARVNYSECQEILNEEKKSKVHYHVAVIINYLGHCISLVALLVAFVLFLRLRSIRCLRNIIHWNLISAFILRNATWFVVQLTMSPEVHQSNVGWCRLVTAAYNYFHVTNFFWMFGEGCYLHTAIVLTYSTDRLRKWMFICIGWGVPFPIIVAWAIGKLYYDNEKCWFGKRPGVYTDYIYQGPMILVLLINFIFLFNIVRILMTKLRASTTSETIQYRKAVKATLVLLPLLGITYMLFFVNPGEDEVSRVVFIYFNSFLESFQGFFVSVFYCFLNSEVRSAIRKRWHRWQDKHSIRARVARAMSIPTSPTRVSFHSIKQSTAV

[2] = target: T2, Corticotropin-releasing factor receptor 1 (Rattus norvegicus, UniProt P35353); assay: Binding affinity was measured on rat Corticotropin releasing factor receptor 1
T2 sequence (P35353 whole entry): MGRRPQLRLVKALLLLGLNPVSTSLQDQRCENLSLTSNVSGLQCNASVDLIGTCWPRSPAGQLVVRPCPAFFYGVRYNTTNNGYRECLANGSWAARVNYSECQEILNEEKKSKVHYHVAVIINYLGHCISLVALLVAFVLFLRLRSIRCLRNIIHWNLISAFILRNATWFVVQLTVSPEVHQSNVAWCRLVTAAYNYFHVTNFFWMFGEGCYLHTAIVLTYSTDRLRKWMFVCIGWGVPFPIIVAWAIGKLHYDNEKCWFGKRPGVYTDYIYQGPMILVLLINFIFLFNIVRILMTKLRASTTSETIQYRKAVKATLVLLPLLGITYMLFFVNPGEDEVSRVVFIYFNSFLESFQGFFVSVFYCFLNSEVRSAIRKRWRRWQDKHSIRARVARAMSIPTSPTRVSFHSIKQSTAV

[3] = Bioavailability in rat (dose 30 mg/kg i.p.); assay type: ADME, organism-based; conditions: in vivo, ip
[4] = The maximum concentration of the compound was measured in rat at dose 30 mg/kg after intravenous administration.; assay type: ADME, organism-based; parameters: dose 30 mg/kg, route intravenous; conditions: in vivo
[5] = The maximum concentration of the compound was measured in rat at dose 30 mg/kg after intraperitoneal administration.; assay type: ADME, organism-based; parameters: dose 30 mg/kg, route intraperitoneal; conditions: in vivo, ip
[6] = Tmax is the time taken to reach maximum concentration was measured on rat at dose 30 mg/kg after intravenous administration.; assay type: ADME, organism-based; parameters: dose 30 mg/kg, route intravenous; conditions: in vivo
[7] = The clearance was measured in rat at dose 30 mg/kg after intravenous administration.; assay type: ADME, organism-based; parameters: dose 30 mg/kg, route intravenous; conditions: in vivo
[8] = the half life period was measured in rat at dose 30 mg/kg after intravenous administration.; assay type: ADME, organism-based; parameters: dose 30 mg/kg, route intravenous; conditions: in vivo
[9] = The bioavailability measured as F(%) on rat at dose 30 mg/kg […].; assay type: ADME, organism-based; conditions: in vivo
[10] = Tmax is the time taken to reach maximum concentration was measured on rat at dose 30 mg/kg after intraperitoneal administration.; assay type: ADME, organism-based; parameters: dose 30 mg/kg, route intraperitoneal; conditions: in vivo, ip

| SMILES | Ki [1] | also measured |
| --- | --- | --- |
| CCN(CC)c1cc(C)nc(N(CC)c2c(Cl)cc(OC)cc2Cl)n1 | 15 nM | – |
| CCN(CC)c1cc(C)nc(N(CC)c2c(Cl)cc(OC)cc2OC)n1 | 10 nM | – |
| CCCN(CCC)c1nc(C)nc(N(CC)c2ccc(N(C)C)cc2C)n1 | 7 nM | – |
| C=CCN(CC=C)c1nc(C)nc(N(CC)c2ccc(OC(F)(F)F)cc2Br)n1 | 4 nM | – |
| CCN(CC)c1cc(C)nc(N(CC)c2ccc(N(C)C)cc2Br)n1 | 27 nM | – |
| CCN(c1nc(C)cc(C)n1)c1c(Br)cc(C(C)C)cc1OC | 26 nM | – |
| CCN(CCOC)c1cc(C)nc(N(CC)c2ccc(C(C)C)cc2Br)n1 | 22 nM | – |
| CCc1ccc(N(C)c2nc(C)cc(C)n2)c(Br)c1 | – | Ki [2]: 187 nM |
| CCN(CC)c1cc(C)nc(N(CC)c2c(Br)cc(C(C)C)cc2SC)n1 | 26 nM | – |
| CCCN(CC1CC1)c1cc(C)nc(N(CC)c2ccc(C(C)C)cc2Br)n1 | 9 nM | – |
| CCN(CC)c1cc(C)nc(N(CC)c2ccc(S(C)(=O)=O)cc2Br)n1 | 24 nM | – |
| CCN(c1ccc(C(C)C)cc1)c1nc(C)cc(C)n1 | > 1000 nM | – |
| CCN(c1nc(C)cc(C)n1)c1ccc(C(C)C)cc1I | – | Ki [2]: 38 nM |
| CCCCN(CC#N)c1nc(C)nc(N(CC)c2ccc(N(C)C)cc2C)n1 | 8 nM | – |
| CCN(c1nc(C)cc(C)n1)c1c(Br)cc(OC)cc1OC | 12 nM | bioavailability [3]: 4%; Cmax [4]: 1880 nM; Cmax [5]: 366 nM; Tmax [6]: 0.25 h; clearance [7]: 88.7 mL/min/kg; half-life [8]: 5.9 h; bioavailability [9]: 26%; Tmax [10]: 1.2 h |
| CCCCN(CC#N)c1nc(C)nc(N(CC)c2ccc(N(C)C)cc2C(F)(F)F)n1 | 6 nM | – |
| CCCN(c1cc(C)nc(N(CC)c2ccc(C(C)C)cc2Br)n1)C1CC1 | 5 nM | – |
| CCCCN(CC)c1cc(C)nc(N(CC)c2ccc(C(C)C)cc2Br)n1 | 19 nM | – |
| CCC(CC)Nc1nc(C)nc(N(CC)c2ccc(C(C)C)cc2Br)n1 | 41 nM | – |
| CCN(c1nc(C)cc(N(CCOC)Cc2ccccc2)n1)c1ccc(C(C)C)cc1Br | 14 nM | – |

| SMILES | Ki [1] | also measured |
| --- | --- | --- |
| CCC(CC)c1cc(C)nc(N(CC)c2ccc(C(C)C)cc2Br)n1 | 2 nM | – |
| CCc1cc(CC)nc(N(CC)c2ccc(C(C)C)cc2Br)n1 | > 100 nM | – |
| CCN(CCOC)c1nc(C)nc(N(CC)c2c(C)cc(C)cc2C)n1 | 31 nM | – |
| Cc1ccc(N(C)c2nc(C)cc(C)n2)c(Br)c1 | – | Ki [2]: 1100 nM |
| CCN(c1nc(C)cc(C)n1)c1ccccc1Br | > 1000 nM | – |
| CCN(c1nc(C)nc(N(CCOC)CCOC)n1)c1ccc(C(C)C)cc1Br | 18 nM | – |
| CCN(CC)c1cc(C)nc(N(CC)c2ccc(N(C)C)cc2C(F)(F)F)n1 | 11 nM | – |
| CCCCN(CCOC)c1nc(C)nc(N(CC)c2c(C)cc(C)cc2C)n1 | 13 nM | – |
| CCN(CC)c1cc(C)nc(N(CC)c2ccc(C(C)=O)cc2Br)n1 | 5 nM | – |
| CCN(CC)c1cc(C)nc(N(CC)c2ccc(C(C)C)cc2Br)n1 | 22 nM and 30 nM | – |
| CCN(CC)c1nc(C)nc(N(CC)c2ccc(C(C)=O)cc2Br)n1 | 17 nM | – |
| C=CCN(CC=C)c1nc(C)nc(N(CC)c2ccc(C(C)C)cc2Br)n1 | 4 nM | – |
| CCN(c1nc(C)cc(C)n1)c1c(Br)cc(N(C)C)cc1OC | 5 nM | – |
| CCN(c1nc(C)cc(C)n1)c1ccc(N(C)C)cc1SC | 20 nM | – |
| CCCCN(CC)c1nc(C)nc(N(CC)c2c(C)cc(C)cc2C)n1 | 23 nM | – |
| CCCCN(CC)c1nc(C)nc(N(CC)c2ccc(C(C)C)cc2Br)n1 | 5 nM | – |
| CCN(CC)c1nc(C)nc(N(CC)c2ccc(N(C)C)cc2C(F)(F)F)n1 | 20 nM | – |
| Cc1cc(C)nc(N(C)c2ccccc2I)n1 | – | Ki [2]: 3650 nM |
| CCCN(CCC)c1nc(C)nc(N(CC)c2ccc(N(C)C)cc2C(F)(F)F)n1 | 6 nM | – |

From ChEMBL document CHEMBL1132596, “Non-peptide corticotropin-releasing hormone antagonists: syntheses and structure-activity relationships of 2-anilinopyrimidines and -triazines” (J Med Chem, 1999)
